From US8802678B2, “Carbonylated (aza) cyclohexanes as dopamine D3 receptor ligands” (Bioprojet, priority 2006, dated 2014) come the findings set out here.

What is called melting point is the temperature of the solid-liquid transition. In the case of `N#CCCCC(=O)N[C@H]1CC[C@H](CCN2CCN(c3cc(C(F)(F)F)cc(C(F)(F)F)c3)CC2)CC1` [Example 184, N-(4-{2-[4-(3,5-Bistrifluoromethylphenyl)piperazin-1-yl]ethyl}cyclohexyl)-4-cyanobutanamide], the melting point is 166 °C.
The compound `N#CCC(=O)N[C@H]1CC[C@H](CCN2CCN(c3cccc(Cl)c3F)CC2)CC1` [Example 185, N-(4-{2-[4-(3-Chloro-2-fluorophenyl)piperazin-1-yl]ethyl}cyclohexyl)-2-cyanoacetamide] had a melting point of 183 °C.
`NC(=O)CCC(=O)N[C@H]1CC[C@H](CCN2CCN(c3ccccc3F)CC2)CC1` [Example 186, N-(4-{2-[4-(2-Fluorophenyl)piperazin-1-yl]ethyl}cyclohexyl)succinamide] returned a melting point of 255 °C.
`O=C(CC(F)(F)F)N[C@H]1CC[C@H](CCN2CCN(c3ccccc3)CC2)CC1` [Example 188, 3,3,3-Trifluoro-N-{4-[2-(4-phenylpiperazin-1-yl)ethyl]cyclohexyl}propanamide] displayed a melting point of 185 °C.
In turn, `N#CCC(=O)N[C@H]1CC[C@H](CCN2CCN(c3cc(C(F)(F)F)ccc3Cl)CC2)CC1` [Example 189, N-(4-{2-[4-(2-Chloro-5-trifluoromethylphenyl)piperazin-1-yl]ethyl}cyclohexyl)-2-cyanoacetamide] registered a melting point of 203 to 204 °C.
As to `Cc1ccc(Cl)cc1N1CCN(CC[C@H]2CC[C@H](NC(=O)CCC(N)=O)CC2)CC1` [Example 190, N-(4-{2-[4-(5-Chloro-2-methylphenyl)piperazin-1-yl]ethyl}cyclohexyl)succinamide], the melting point is 237 to 240 °C.
Regarding `CC(=O)CCC(=O)N[C@H]1CC[C@H](CCN2CCN(c3cccc(C(F)(F)F)c3)CC2)CC1` [Example 191, 4-Oxo-pentanoic acid (4-{2-[4-(3-trifluoromethylphenyl)piperazin-1-yl]ethyl}cyclohexyl)amide], the melting point is 159 °C.
Compound `Cc1ccc(F)c(N2CCN(CC[C@H]3CC[C@H](NC(=O)CC#N)CC3)CC2)c1` [Example 192, 2-Cyano-N-(4-{2-[4-(2-fluoro-5-methylphenyl)piperazin-1-yl]ethyl}cyclohexyl)acetamide] returned a melting point of 178 °C.
`COc1ccc(Cl)c(N2CCN(CC[C@H]3CC[C@H](NC(=O)CC#N)CC3)CC2)c1` [Example 193, N-(4-{2-[4-(2-Chloro-5-methoxyphenyl)piperazin-1-yl]ethyl}cyclohexyl)-2-cyanoacetamide] came in with a melting point of 165 °C.
In turn, `CSc1ccccc1N1CCN(CC[C@H]2CC[C@H](NC(=O)CC#N)CC2)CC1` [Example 194, 2-Cyano-N-(4-{2-[4-(2-methylsulfanylphenyl)piperazin-1-yl]ethyl}cyclohexyl)acetamide] showed a melting point of 146 °C.
Compound `COc1ccc(C)cc1N1CCN(CC[C@H]2CC[C@H](NC(=O)CC#N)CC2)CC1` [Example 195, 2-Cyano-N-(4-{2-[4-(2-methoxy-5-methylphenyl)piperazin-1-yl]ethyl}cyclohexyl)acetamide] gave a melting point of 178 °C.
For `Cc1ccc(F)cc1N1CCN(CC[C@H]2CC[C@H](NC(=O)CC#N)CC2)CC1` [Example 196, 2-Cyano-N-(4-{2-[4-(5-fluoro-2-methylphenyl)piperazin-1-yl]ethyl}cyclohexyl)acetamide], the melting point is 159 °C.
For `COc1ccc(C(C)(C)C)cc1N1CCN(CC[C@H]2CC[C@H](NC(=O)CC#N)CC2)CC1` [Example 197, N-(4-{2-[4-(5-tert-Butyl-2-methoxyphenyl)piperazin-1-yl]ethyl}cyclohexyl)-2-cyanoacetamide], the melting point worked out at 163 °C.
The figure for `COc1ccc(C)c(N2CCN(CC[C@H]3CC[C@H](NC(=O)CC#N)CC3)CC2)c1` [Example 198, 2-Cyano-N-(4-{2-[4-(5-methoxy-2-methylphenyl)piperazin-1-yl]ethyl}cyclohexyl)acetamide] is 178 to 180 °C.
